The test system of the data set is adult articular cartilage. Put plainly: effect on cartilage of sesamoid bones, release of proteoglycan and COMP fragments. The following applies: 10 min treatment at 37° C., undiluted or diluted 1:10, 1:100, 1:1000 with Ringer's solution; compared with Ringer's solution control. It counts as cell-based, bovine. The method, then:
In an unpublished study, the effects of povidone iodine in non-liposomal form was studied on adult articular cartilage.
Sesamoid bones were dissected within 2-4 h after slaughter from bovine metacarpo-phalangeal joints of adult animals under aseptic conditions. The cartilage from sesamoid bones of a particular animal is uniform with respect to glycosaminoglycan synthesis, glycosaminoglycan content, and proteoglycan composition. Each experimental group consisted of eight sesamoid bones from the same animal. The sesamoid bones were washed in 10 ml cold sterile Ringer's solution for 10 min, incubated respectively in 10 ml of sterile Ringer's solution (control), PVP-iodine, or PVP-iodine dilutions with Ringer's solution (1:10, 1:100, or 1:1000) at 37° C. for 10 min in a humidified atmosphere of 5% CO2 in air, and subsequently washed again for 5×5 min in 10 ml Ringer's solution in each case. […] The culture media of sesamoid bones and extracts of cartilage plugs were used for the quantitative and qualitative characterization of proteoglycans and COMP (cartilage oligomeric matrix protein), because an increased release of fragments of these cartilage matrix constituents equals to a catabolic pathway.

“poly(1-vinyl-2-pyrrolidin-2-one)-iodine complex [PVP-iodine]”: the “proteolytic fragmentation of cartilage matrix constituents (proteoglycans, COMP)” value is listed as “no increased proteolytic fragmentation”.

These data come from patent US7468194B1, “Preparations for the application of anti-inflammatory agents” (Euro-Celtique, S.A., priority 1999, dated 2008).
